Columns and labels:
[1] = target: T1, Melanocortin receptor 4 (Homo sapiens, UniProt P32245); assay: Agonist activity at MC4R assessed as stimulation of cAMP release; assay type: functional
[2] = target: T1, Melanocortin receptor 4; assay: Antagonist activity at MC4R assessed as inhibition of alpha-MSH-stimulated cAMP release; assay type: functional
[3] = target: T1, Melanocortin receptor 4; assay: Displacement of […]NDPMSH from human MC4R expressed in HEK293 cells; assay type: cell-based
[4] = target: T1, Melanocortin receptor 4; assay: Agonist activity at MC4R assessed as stimulation of cAMP release relative to alphaMSH; assay type: functional
[5] = target: Melanocortin receptor 3 (Homo sapiens, UniProt P41968); assay: Binding affinity to MC3R
[6] = target: Melanocortin receptor 5 (Homo sapiens, UniProt P33032); assay: Binding affinity to MC5R
[7] = target: Melanocyte-stimulating hormone receptor (Homo sapiens, UniProt Q01726); assay: Binding affinity to MC1R
[8] = target: Melanocortin receptor 4 (Mus musculus, UniProt P56450); assay: Binding affinity to mouse MC4R
Chain of Melanocortin receptor 4 (Mus musculus, UniProt P56450) (P56450 whole entry): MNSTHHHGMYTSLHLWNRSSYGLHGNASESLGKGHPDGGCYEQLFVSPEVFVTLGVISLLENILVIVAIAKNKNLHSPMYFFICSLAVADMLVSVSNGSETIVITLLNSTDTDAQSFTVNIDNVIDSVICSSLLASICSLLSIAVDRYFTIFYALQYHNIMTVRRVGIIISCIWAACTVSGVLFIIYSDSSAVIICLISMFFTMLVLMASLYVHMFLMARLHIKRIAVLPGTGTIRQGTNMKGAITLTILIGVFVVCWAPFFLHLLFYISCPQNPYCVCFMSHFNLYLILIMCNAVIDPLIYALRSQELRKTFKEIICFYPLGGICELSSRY

T1 sequence (P32245 whole entry): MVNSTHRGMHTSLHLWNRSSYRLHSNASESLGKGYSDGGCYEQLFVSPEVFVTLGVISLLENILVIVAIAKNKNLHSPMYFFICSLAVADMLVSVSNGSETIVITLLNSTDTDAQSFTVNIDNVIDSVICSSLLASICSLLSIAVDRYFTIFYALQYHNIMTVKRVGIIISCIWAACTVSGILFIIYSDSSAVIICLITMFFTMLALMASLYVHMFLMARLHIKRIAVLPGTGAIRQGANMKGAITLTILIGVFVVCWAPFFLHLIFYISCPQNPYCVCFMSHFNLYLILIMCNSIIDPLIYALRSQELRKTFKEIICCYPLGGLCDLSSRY
Chain of Melanocortin receptor 3 (P41968 whole entry): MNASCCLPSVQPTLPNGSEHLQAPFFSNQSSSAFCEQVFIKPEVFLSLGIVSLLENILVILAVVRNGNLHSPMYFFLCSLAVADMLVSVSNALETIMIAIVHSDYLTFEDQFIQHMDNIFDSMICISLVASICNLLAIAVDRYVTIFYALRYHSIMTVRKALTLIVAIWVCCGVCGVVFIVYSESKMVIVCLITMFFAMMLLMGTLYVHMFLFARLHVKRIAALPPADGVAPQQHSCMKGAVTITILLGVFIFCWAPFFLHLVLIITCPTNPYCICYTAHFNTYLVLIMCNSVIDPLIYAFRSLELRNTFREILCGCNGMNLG
Chain of Melanocyte-stimulating hormone receptor (Q01726 whole entry): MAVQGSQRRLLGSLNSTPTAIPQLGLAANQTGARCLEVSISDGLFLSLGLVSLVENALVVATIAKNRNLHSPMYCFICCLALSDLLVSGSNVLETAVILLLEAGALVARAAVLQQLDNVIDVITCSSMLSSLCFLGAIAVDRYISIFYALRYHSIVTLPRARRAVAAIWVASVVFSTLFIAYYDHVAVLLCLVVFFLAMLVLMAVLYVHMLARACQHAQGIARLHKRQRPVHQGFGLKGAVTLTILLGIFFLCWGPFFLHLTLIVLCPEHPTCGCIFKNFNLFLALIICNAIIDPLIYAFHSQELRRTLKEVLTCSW
Chain of Melanocortin receptor 5 (P33032 whole entry, looked up): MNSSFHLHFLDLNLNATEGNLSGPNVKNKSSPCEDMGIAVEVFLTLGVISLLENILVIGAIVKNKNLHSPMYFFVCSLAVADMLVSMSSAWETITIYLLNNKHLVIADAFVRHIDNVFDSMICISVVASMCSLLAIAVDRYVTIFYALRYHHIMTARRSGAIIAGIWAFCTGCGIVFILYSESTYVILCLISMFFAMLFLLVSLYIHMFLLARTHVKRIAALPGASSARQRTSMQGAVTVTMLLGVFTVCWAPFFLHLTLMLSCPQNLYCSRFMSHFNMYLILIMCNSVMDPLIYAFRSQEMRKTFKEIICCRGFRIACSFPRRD

Compound	EC50 [1] [nM]	IC50 [2] [nM]	Ki [3] [nM]	Intrinsic activity [4] [%]	Ki [5] [nM]	Ki [6] [nM]	Ki [7] [µM]	Ki [8] [nM]
O=C([C@H]1CN(C2CCCCC2)C[C@@H]1c1ccc(Cl)cc1)N1CCN(C2(CNCc3ccccc3)CCCCC2)CC1	1500	130	5.5	16				
COc1ccc(CNCC2(N3CCN(C(=O)[C@H]4CN(C(C)C)C[C@@H]4c4ccc(Cl)cc4)CC3)CCCCC2)cc1F	170	48	0.5	10	760	540	3.9	0.6
CC(C)N1C[C@H](C(=O)N2CCN(C3(CNCc4ccncc4)CCCCC3)CC2)[C@@H](c2ccc(Cl)cc2)C1	780	410	27	27				
CC(C)N1C[C@H](C(=O)N2CCN(C3(CNCc4cccnc4)CCCCC3)CC2)[C@@H](c2ccc(Cl)cc2)C1	390		35	72				
CC(C)N1C[C@H](C(=O)N2CCN(C3(CNCc4ccccc4F)CCCCC3)CC2)[C@@H](c2ccc(Cl)cc2)C1	580		12	48				
CC(C)N1C[C@H](C(=O)N2CCN(C3(CNCc4cncnc4)CCCCC3)CC2)[C@@H](c2ccc(Cl)cc2)C1	220		220	66				
CC(C)N1C[C@H](C(=O)N2CCN(C3(CNCc4ccsc4)CCCCC3)CC2)[C@@H](c2ccc(Cl)cc2)C1	840		22	31				

Further compounds by falling EC50 [1], results first:

EC50 [1] [nM]	IC50 [2] [nM]	Ki [3] [nM]	Intrinsic activity [4] [%]	Ki [5] [nM]	Ki [6] [nM]	Ki [7] [µM]	Ki [8] [nM]	Compound
6600		44	61					CC(C)N1C[C@H](C(=O)N2CCN(C3(CNCc4ccc(F)cc4)CCCCC3)CC2)[C@@H](c2ccc(Cl)cc2)C1
1600		1.8	26					COc1ccc(CNCC2(N3CCN(C(=O)[C@H]4CN(C(C)C)C[C@@H]4c4ccc(Cl)cc4)CC3)CCCCC2)c(F)c1
1300		25	75					CC(C)N1C[C@H](C(=O)N2CCN(C3(CNCc4ccccc4Cl)CCCCC3)CC2)[C@@H](c2ccc(Cl)cc2)C1
1200		30	39					COc1cccc(CNCC2(N3CCN(C(=O)[C@H]4CN(C(C)C)C[C@@H]4c4ccc(Cl)cc4)CC3)CCCCC2)c1
